Source: BigSolDB 2.1

What does the source list for NS(=O)(=O)Cc1noc2ccccc12?
solubility (mole fraction) (in DMF, 278.15 K): 0.0292; solubility (mole fraction) (in DMF, 283.15 K): 0.0356; solubility (mole fraction) (in DMF, 288.15 K): 0.0428; solubility (mole fraction) (in DMF, 293.15 K): 0.0514; solubility (mole fraction) (in DMF, 298.15 K): 0.0612; solubility (mole fraction) (in DMF, 303.15 K): 0.0721; solubility (mole fraction) (in DMF, 308.15 K): 0.0852; solubility (mole fraction) (in DMF, 313.15 K): 0.101; solubility (mole fraction) (in DMF, 318.15 K): 0.118; solubility (mole fraction) (in DMF, 323.15 K): 0.136; solubility (mole fraction) (in acetonitrile, 278.15 K): 0.00682; solubility (mole fraction) (in acetonitrile, 283.15 K): 0.00802; solubility (mole fraction) (in acetonitrile, 288.15 K): 0.00937; solubility (mole fraction) (in acetonitrile, 293.15 K): 0.0108; solubility (mole fraction) (in acetonitrile, 298.15 K): 0.0124; solubility (mole fraction) (in acetonitrile, 303.15 K): 0.0142; solubility (mole fraction) (in acetonitrile, 308.15 K): 0.0162; solubility (mole fraction) (in acetonitrile, 313.15 K): 0.0183; solubility (mole fraction) (in acetonitrile, 318.15 K): 0.0207; solubility (mole fraction) (in acetonitrile, 323.15 K): 0.0233; solubility (mole fraction) (in ethanol, 278.15 K): 0.00139; solubility (mole fraction) (in ethanol, 283.15 K): 0.00162; solubility (mole fraction) (in ethanol, 288.15 K): 0.00185; solubility (mole fraction) (in ethanol, 293.15 K): 0.00215; solubility (mole fraction) (in ethanol, 298.15 K): 0.00245; solubility (mole fraction) (in ethanol, 303.15 K): 0.00279; solubility (mole fraction) (in ethanol, 308.15 K): 0.00316; solubility (mole fraction) (in ethanol, 313.15 K): 0.00356; solubility (mole fraction) (in ethanol, 318.15 K): 0.004; solubility (mole fraction) (in ethanol, 323.15 K): 0.00446; solubility (mole fraction) (in isopropanol, 278.15 K): 0.000797; solubility (mole fraction) (in isopropanol, 283.15 K): 0.000963; solubility (mole fraction) (in isopropanol, 288.15 K): 0.00115; solubility (mole fraction) (in isopropanol, 293.15 K): 0.00137; solubility (mole fraction) (in isopropanol, 298.15 K): 0.00163; solubility (mole fraction) (in isopropanol, 303.15 K): 0.00192; solubility (mole fraction) (in isopropanol, 308.15 K): 0.00226; solubility (mole fraction) (in isopropanol, 313.15 K): 0.00264; solubility (mole fraction) (in isopropanol, 318.15 K): 0.00306; solubility (mole fraction) (in isopropanol, 323.15 K): 0.00352; solubility (mole fraction) (in water, 278.15 K): 1.78e-05; solubility (mole fraction) (in water, 283.15 K): 2.5e-05; solubility (mole fraction) (in water, 288.15 K): 3.43e-05; solubility (mole fraction) (in water, 293.15 K): 4.67e-05; solubility (mole fraction) (in water, 298.15 K): 6.49e-05; solubility (mole fraction) (in water, 303.15 K): 8.56e-05; solubility (mole fraction) (in water, 308.15 K): 0.000112; solubility (mole fraction) (in water, 313.15 K): 0.00015; solubility (mole fraction) (in water, 318.15 K): 0.000196; solubility (mole fraction) (in water, 323.15 K): 0.000256
